Data as given in ChEMBL document CHEMBL1201862, “PubChem BioAssay data set” (2004).
Where a name gives a salt, the structure may show the parent alone. Active and inactive are the calls of the source.

How the values were obtained:
[1] = A cytotoxicity screen of small molecule inhibitors of the PhoP region in Salmonella typhi identified in the primary screen. [Related pubchem assays: 1850, 1864, 1985 ]; format: functional
[2] = molecular target: T1, Caspase-6 (Homo sapiens, UniProt P55212); assay: inhibition of CASP6 peptide cleavage – biochemical, VEID-R110 fluorescence, cherry-pick, dose response (AID 720632)
T1 sequence (P55212 whole entry): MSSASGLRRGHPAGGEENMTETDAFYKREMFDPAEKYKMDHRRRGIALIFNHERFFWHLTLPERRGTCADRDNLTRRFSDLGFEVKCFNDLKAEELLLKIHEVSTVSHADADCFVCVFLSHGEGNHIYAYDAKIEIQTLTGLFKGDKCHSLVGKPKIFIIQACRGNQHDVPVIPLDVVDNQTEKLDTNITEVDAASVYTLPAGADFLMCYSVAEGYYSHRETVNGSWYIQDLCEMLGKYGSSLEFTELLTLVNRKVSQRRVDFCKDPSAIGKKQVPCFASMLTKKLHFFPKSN

[3] = THP-1 cell cytotoxicity, dose response, cytotoxicity control for non-replicating M. tuberculosis project (AID 489025); format: functional
[4] = cells; format: functional
[5] = molecular target: FAD-linked sulfhydryl oxidase ALR (Homo sapiens, UniProt P55789); assay: ALR-catalysed DTT oxidation blockers – biochemical, H2O2 detection, luminescence, cherry-pick, dose response (AID 493248)
FAD-linked sulfhydryl oxidase ALR, sequence (P55789 whole entry): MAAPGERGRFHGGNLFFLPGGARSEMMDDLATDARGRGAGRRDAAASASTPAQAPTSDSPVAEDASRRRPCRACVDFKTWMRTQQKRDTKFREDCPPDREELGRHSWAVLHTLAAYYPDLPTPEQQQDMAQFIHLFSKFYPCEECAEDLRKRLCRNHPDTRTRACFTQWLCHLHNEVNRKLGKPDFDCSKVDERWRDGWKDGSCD

[6] = molecular target: T2, Short transient receptor potential channel 4 (Mus musculus, UniProt Q9QUQ5); assay: block of DAMGO-driven TRPC4 calcium entry – cell-based, HEK293 TRPC4/mu-opioid, Fluo-4 calcium, dose response (AID 434942); format: functional;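 note: potency of inhibitors blocking the TRPC4 calcium response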
T2 sequence (Q9QUQ5 whole entry): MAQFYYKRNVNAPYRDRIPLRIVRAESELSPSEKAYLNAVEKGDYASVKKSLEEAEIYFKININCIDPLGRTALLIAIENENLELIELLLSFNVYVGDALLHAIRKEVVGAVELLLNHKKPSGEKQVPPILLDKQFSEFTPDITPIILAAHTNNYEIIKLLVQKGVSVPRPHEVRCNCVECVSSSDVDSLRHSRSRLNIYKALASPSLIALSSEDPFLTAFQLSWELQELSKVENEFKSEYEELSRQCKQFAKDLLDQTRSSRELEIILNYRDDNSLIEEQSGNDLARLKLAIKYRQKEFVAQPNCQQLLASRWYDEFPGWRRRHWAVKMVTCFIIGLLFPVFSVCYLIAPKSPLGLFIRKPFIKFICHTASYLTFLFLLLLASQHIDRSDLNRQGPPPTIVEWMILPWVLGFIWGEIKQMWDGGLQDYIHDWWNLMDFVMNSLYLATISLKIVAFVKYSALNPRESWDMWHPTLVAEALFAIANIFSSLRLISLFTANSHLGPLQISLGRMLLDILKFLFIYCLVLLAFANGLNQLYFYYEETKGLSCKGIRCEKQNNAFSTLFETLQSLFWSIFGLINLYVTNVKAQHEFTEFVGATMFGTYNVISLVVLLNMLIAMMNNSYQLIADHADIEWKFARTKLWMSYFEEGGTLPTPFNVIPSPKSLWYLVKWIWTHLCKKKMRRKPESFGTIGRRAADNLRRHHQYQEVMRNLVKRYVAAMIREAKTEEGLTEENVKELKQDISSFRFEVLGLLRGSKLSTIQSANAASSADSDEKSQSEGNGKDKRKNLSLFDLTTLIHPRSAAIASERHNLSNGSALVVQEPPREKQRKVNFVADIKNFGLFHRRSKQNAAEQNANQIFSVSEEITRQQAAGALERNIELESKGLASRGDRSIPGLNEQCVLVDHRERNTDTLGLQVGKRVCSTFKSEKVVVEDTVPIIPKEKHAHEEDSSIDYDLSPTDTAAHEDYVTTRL

[7] = microbe, parasite or virus in culture; format: functional; conditions: Mycobacterium tuberculosis
[8] = luciferase reporter signal suppression in cells – H4 neuroglioma cells, luminescence, dose response (AID 1990); format: functional, cell-based
[9] = Luminescence Cell-Based Dose Response HTS to Identify Inhibitors of 5'UTR Stem-Loop Driven Prion Protein mRNA Translation in H4 Neuroglioblastoma Cells. [Related pubchem assays: 1827 (Project Summary), 1813 (Primary HTS)]; format: functional
[10] = alpha-synuclein stem-loop luciferase translation blockers – H4 neuroglioma cells, luminescence, confirmation (AID 1988); format: functional, cell-based
[11] = molecular target: T3, Rac GTPase-activating protein 1 (Homo sapiens, UniProt Q9H0H5); assay: blockers of MgcRacGAP-driven Rac1 GTP hydrolysis – biochemical, ADP Hunter fluorescence, primary and confirmatory, confirmation (AID 624330); format: functional
T3 sequence (Q9H0H5 whole entry): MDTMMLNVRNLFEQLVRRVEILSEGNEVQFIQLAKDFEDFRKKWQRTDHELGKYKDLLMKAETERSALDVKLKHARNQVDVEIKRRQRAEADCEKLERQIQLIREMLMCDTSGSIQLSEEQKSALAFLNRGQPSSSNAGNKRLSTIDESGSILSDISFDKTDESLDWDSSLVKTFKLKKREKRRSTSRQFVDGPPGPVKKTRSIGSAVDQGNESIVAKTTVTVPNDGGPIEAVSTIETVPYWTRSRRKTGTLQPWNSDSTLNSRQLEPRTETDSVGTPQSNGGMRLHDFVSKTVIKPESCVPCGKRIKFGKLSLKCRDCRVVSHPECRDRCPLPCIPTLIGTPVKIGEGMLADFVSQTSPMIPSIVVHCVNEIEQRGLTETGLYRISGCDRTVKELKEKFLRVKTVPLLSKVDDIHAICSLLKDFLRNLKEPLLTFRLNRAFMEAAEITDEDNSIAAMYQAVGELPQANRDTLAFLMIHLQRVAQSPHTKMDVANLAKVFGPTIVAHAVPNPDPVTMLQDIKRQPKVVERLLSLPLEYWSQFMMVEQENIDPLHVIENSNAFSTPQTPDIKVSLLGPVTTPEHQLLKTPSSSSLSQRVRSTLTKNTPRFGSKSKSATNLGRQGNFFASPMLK

[12] = Trypanosoma cruzi growth suppression in host cells – NIH3T3 host cells, beta-gal luminescence, confirmation (AID 2044); format: functional, cell-based;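 note: intracellular parasites grown in NIH/3T3 mouse fibroblasts as host cells; luminescent beta-galactosidase reporter signal from transgenic T. cruzi replicating inside host cells; inhibitors lower the luminescence signal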
[13] = NIH3T3 cell viability loss – ATP luminescence, mouse fibroblasts, counter-screen, dose response (AID 2010); format: functional, cell-based;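 note: cells exposed to compound for about 90 hours before reading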
[14] = molecular target: T4, DNA repair protein RAD52 homolog (Homo sapiens, UniProt P43351); format: functional, biochemical
T4 sequence (P43351 whole entry): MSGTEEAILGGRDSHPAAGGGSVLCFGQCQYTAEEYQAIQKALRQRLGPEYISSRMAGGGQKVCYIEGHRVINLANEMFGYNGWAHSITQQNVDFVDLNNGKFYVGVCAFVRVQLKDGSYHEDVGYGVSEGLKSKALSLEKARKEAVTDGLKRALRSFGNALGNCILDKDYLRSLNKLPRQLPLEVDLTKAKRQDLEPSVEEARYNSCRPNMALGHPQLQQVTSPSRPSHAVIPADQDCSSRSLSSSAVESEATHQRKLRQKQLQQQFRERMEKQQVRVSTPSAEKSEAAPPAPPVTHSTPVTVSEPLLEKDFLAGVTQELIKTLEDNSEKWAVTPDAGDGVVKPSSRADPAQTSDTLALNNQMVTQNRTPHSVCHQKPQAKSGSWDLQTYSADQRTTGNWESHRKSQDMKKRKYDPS

[15] = NIH-3T3 fibroblast cytotoxicity, dose response, cytotoxicity control, cell-based, fluorescence, Alamar Blue, secondary assay (AID 2327); format: functional;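 note: NIH-3T3 mouse fibroblasts cultured with fluconazole at 8 µg/mL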
[16] = fluconazole-exposed Candida albicans growth modulators – fluorescence, retest, confirmation (AID 2467); format: functional, cell-based
[17] = molecular target: Luciferin 4-monooxygenase (Photinus pyralis, UniProt P08659); assay: inhibition of purified Photinus pyralis luciferase – biochemical, luminescence, dose response (AID 1891)
Luciferin 4-monooxygenase, sequence (P08659 whole entry): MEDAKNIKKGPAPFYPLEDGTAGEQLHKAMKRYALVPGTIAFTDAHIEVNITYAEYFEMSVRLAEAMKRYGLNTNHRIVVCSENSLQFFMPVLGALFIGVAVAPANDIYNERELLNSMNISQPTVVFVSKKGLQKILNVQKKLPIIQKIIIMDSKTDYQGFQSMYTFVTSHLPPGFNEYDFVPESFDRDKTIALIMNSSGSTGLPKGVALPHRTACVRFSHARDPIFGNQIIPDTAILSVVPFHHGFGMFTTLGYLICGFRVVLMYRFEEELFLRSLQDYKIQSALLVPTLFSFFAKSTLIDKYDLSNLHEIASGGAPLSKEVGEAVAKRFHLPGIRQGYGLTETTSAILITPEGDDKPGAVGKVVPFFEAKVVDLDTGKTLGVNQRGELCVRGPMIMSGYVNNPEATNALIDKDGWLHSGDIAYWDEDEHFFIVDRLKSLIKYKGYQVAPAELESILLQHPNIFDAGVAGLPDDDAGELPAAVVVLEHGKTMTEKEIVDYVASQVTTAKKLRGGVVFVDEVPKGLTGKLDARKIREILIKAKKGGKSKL

[18] = Luminescence Cell-Based Dose Confirmation HTS to Identify Inhibitors of Platelet Dense Granule Release. [Related pubchem assays: 1663 (Primary HTS), 1678 (Summary of Project)]; format: functional

With `COc1ccc(OC)c(S(=O)(=O)N2CCC(C(=O)NCCc3ccc(OC)c(OC)c3)CC2)c1` the EC50 [1] was > 50 µM (active).
For `C[C@](N)(Cc1ccc(O)c(O)c1)C(=O)O` [METHYLDOPA], the AC50 [2] was 39.2 µM (active).
In the case of `CC(C)(C)Nc1nc(NC(C)(C)C)nc(-n2ccnc2)n1`, the CC50 [3] is reported as > 40 µM (active) and the IC50 [4] is reported as 22.9 µM (active).
With `CC12CCC(C(=O)N/N=C/c3ccc(O)cc3)(OC1=O)C2(C)C` (stereo not given) the AC50 [5] was 0.099 µM (active).
For `Oc1cnnc(Nc2ccc(Nc3ccccc3)cc2)n1`, the AC50 [5] was 0.323 µM (active).
For `COc1ccc(CN2CCN(C(=O)c3ccc(F)cc3)CC2)c(OC)c1`, the EC50 [6] was 3.76 µM (active).
In the case of `Cn1c(N)c(N=O)c(=O)n(C)c1=S`, the AC50 [2] is reported as 6.37 µM (active).
With `Cc1ccc2c(c1)N(C(=O)CCC(=O)Nc1ccccc1Cl)CC(C)O2` (stereo not given) the EC50 [6] was 1.5 µM (active).
In the case of `O=S(=O)(c1ccccc1)N1CCN(C/C=C/c2ccccc2)CC1`, the EC50 [6] is reported as 5.96 µM (active).
In the case of `COc1cccc(C(=O)N2CCCC(Nc3ccc(C)c(C)c3)C2)c1` (stereo not given), the AC50 [5] is reported as 7.17 µM (active).
For `N#Cc1nc(-c2ccc(OCc3ccccc3)cc2)oc1NCCCn1ccnc1`, the CC50 [7] was > 40 µM (active), the CC50 [3] was 24.7 µM (active) and the IC50 [4] was 46.5 µM (active).
In the case of `CC[C@@H](CO)NC(=O)[C@@H]1C=C2c3cccc4[nH]cc(c34)C[C@H]2N(C)C1` [METHYLERGONOVINE MALEATE], the AC50 [2] is reported as 7.04 µM (active).
In the case of `Cc1nc2ccc(-c3nc4cc(N)ccc4[nH]3)cc2[nH]1`, the EC50 [8] is reported as > 120 µM (not active), the EC50 [9] is reported as 16.6 µM (active) and the EC50 [10] is reported as 38 µM (active). For the same compound, the AC50 [5] was 0.736 µM (active) and the IC50 [11] was 54 µM (active).
In the case of `Cc1cc(-c2c(C)[nH]n(-c3ccccc3)c2=O)[nH]n1`, the CC50 [7] is reported as 33 µM (active), the CC50 [3] is reported as > 40 µM (active) and the AC50 [5] is reported as 5.41 µM (active). For the same compound, the IC50 [4] was 5.35 µM (active).
For `COc1cc(C(=O)NCC(c2ccco2)N2CCc3ccccc32)cc(OC)c1OC` (stereo not given), the AC50 [5] was 5.5 µM (active).
In the case of `CCC(Sc1nc2cc[nH]cc-2n1)C(=O)Nc1ccc(C)c(Cl)c1` (stereo not given), the EC50 [1] is reported as > 50 µM (active), the EC50 [12] is reported as 2.06 µM (active) and the EC50 [13] is reported as > 60 µM (not active).
In the case of `O=C(Cc1ccccc1)N1CCN(Cc2cccc(Br)c2)CC1`, the EC50 [6] is reported as 13.3 µM (active).
With `OCCN1CCN(CC(O)COc2ccc(C34CC5CC(CC(C5)C3)C4)cc2)CC1` (stereo not given) the EC50 [8] was > 120 µM (not active), the EC50 [9] was > 120 µM (not active) and the EC50 [10] was > 120 µM (not active). For the same compound, the AC50 [14] was 16 µM (active).
For `CCCC(c1nnnn1Cc1ccc(OC)cc1)N1CCN(c2ccccc2OC)CC1` (stereo not given), the EC50 [1] was > 50 µM (active).
In the case of `Cc1cc(N)ccc1NC(=O)CN1CCCC1`, the AC50 [14] is reported as 1.73 µM (active).
In the case of `Cc1cccc(-n2nc(C)c3c(C(=O)O)cc(-c4cccs4)nc32)c1`, the EC50 [6] is reported as 2.99 µM (active).
With `NC(=O)C1C(=O)c2ccccc2C1(C[N+](=O)[O-])c1ccccc1` (stereo not given) the AC50 [2] was 38.1 µM (active).
For `NNC(=O)CCc1nc2ccc(O)cc2[nH]1`, the AC50 [5] was 3.82 µM (active).
In the case of `CCOc1c(Cl)cc(CNCC(O)c2ccccc2)cc1OC` (stereo not given), the EC50 [6] is reported as 2.11 µM (active).
In the case of `CC(=O)c1ccc(-[n+]2cc(-c3ccc(C(C)(C)C)cc3)n3c2SCCC3)cc1`, the EC50 [15] is reported as > 150 µM (inactive), the EC50 [16] is reported as 2.03 µM (active) and the EC50 [12] is reported as 0.443 µM (active). The CC50 [7] was > 40 µM (active), the EC50 [13] was > 60 µM (not active) and the CC50 [3] was 11.4 µM (active). For the same compound, the IC50 [4] was 20.9 µM (active).
In the case of `O=C(/C=C/c1ccc(O)cc1)c1ccccc1` [4-HYDROXYCHALCONE], the EC50 [1] is reported as > 50 µM (active), the EC50 [17] is reported as < 0.088 µM (active) and the EC50 [18] is reported as < 0.701 µM (active).
With `CN(C)c1ccc(C(=S)N2CCNCC2)cc1` the AC50 [5] was 2.18 µM (active).
